Results taken from patent publication US5461036A, “Spicamycin derivatives and their use as anticancer agents” (priority 1991, dated 1995).
Where two headings read alike, the source gives them in different places.

How the values were obtained:
[1] = test system: human colon cancer (COL-1); format: in vivo, mouse; conditions: for TGIR (tumor growth inhibition rate, maximum) / minTx (relative tumor volume when reduced to the minimum): COL-1 s.c. in nude mice, at MTD; for TGIR (tumor growth inhibition rate, maximum): TGIR=(1-Tx/Cx)×100, maximum during about 3 weeks; for minTx (relative tumor volume when reduced to the minimum): minimum throughout the test period
Experimental: (2) Method for measuring the antitumor effect on human colon cancer (COL-1)
COL-1, a human colon cancer, was transplanted subcutaneously into nude mice. When the tumor had grown to a volume of about 100 mm^3, the nude mice were divided into groups of 5 animals so that the average tumor volumes of respective groups were equalized. The respective spicamycin derivatives were administered to test groups at their MTDs, while physiological saline (solvent) containing 1% DMSO and 1% Cremophor EL® was administered to the control group. […] RV is expressed as RV =Vn/Vo where Vn is the tumor volume on day n and Vo is the initial tumor volume at the time treatment was commenced.

in vivo = assay: in vivo; set-up: species or system nude mice (BALB/c nu/nu); conditions: mouse, in vivo; intravenous, continuous 5 days, nude mice; maximum dose at which no animal was dead within 2 weeks; read-out: Maximum tolerated dose
Experimental: (1) Measurement of maximum tolerated dose (MTD) of the spicamycin derivatives in nude mice
The spicamycin derivative was dissolved in dimethylsulfoxide (DMSO) and Cremophor EL® at the same volume as DMSO was added. Physiological saline was added so that the concentration of DMSO and Cremophor EL® was finally adjusted to 1%, respectively, and thus injection liquids of spicamycin derivative in a variety of concentrations were prepared. […] The maximum dose at which no animal was dead was defined as the MTD of the respective derivatives.

[2] = /minimum effective dose (effective: TGIR≥50)

| Compound | TGIR (tumor growth inhibition rate, maximum) [1] | minTx (relative tumor volume when reduced to the minimum) [1] | Therapeutic index ([1]; mouse, in vivo) | MTD at 336 h (in vivo) | Therapeutic index [1, 2] |
| --- | --- | --- | --- | --- | --- |
| CCCCCCC/C=C/C=C/C(=O)NCC(=O)N[C@@H]1[C@@H](O)[C@@H](O)[C@@H](Nc2ncnc3[nH]cnc23)O[C@H]1C(O)CO (stereo partly drawn) [SPK282, 6-[4'-N-(N'-trans,trans-2,4-dodecadienoylglycyl)spicaminyl-amino]purine] | 99 | 0.07 | 16 | 36 mg/kg/day | – |
| O=C(CCCCCCCCCCCCCBr)NCC(=O)N[C@@H]1[C@@H](O)[C@@H](O)[C@@H](Nc2ncnc3[nH]cnc23)O[C@H]1C(O)CO (stereo partly shown) [SPK273, 6-[4'-N-(N'-14-bromotetradecanoylglycyl)spicaminyl-amino]purine] | 98 | 0.11 | 8 | 12 mg/kg/day | – |
| CCCCCCCCCCC(F)C(=O)NCC(=O)NC1C(O)C(O)C(Nc2ncnc3[nH]cnc23)OC1C(O)CO (stereo not shown) [SPK159, 6-[4'-N-(N'-2-fluorododecanoylglycyl)spicaminyl-amino]purine] | 96 | – | 4 | 24 mg/kg/day | – |
| O=C(CCCCCCCCCCOc1ccccc1)NCC(=O)NC1C(O)C(O)C(Nc2ncnc3[nH]cnc23)OC1C(O)CO (stereo not shown) [SPK422, 6-[4'-N-(N'-11-phenoxyundecanoylglycyl)-spicaminyl-amino]purine] | 95 | – | 4 | 3.4 mg/kg/day | – |
| CCCC/C=C\CCCCCCCC(=O)NCC(=O)N[C@@H]1[C@@H](O)[C@@H](O)[C@@H](Nc2ncnc3[nH]cnc23)O[C@H]1C(O)CO (stereo partly drawn) [SPK231, 6-[4,-N-(N'-cis-9-tetradecenoylglycyl)spicaminyl-amino]purine] | 96 | 0.12 | 6 | 6 mg/kg/day | – |
| O=C(CCCCCCCCCCCCl)NCC(=O)N[C@@H]1[C@@H](O)[C@@H](O)[C@@H](Nc2ncnc3[nH]cnc23)O[C@H]1C(O)CO (stereo partly shown) [SPK132, 6-[4'-N-(N'-12-chlorododecanoylglycyl)spicaminyl-amino]purine] | 98 | 0.08 | 4 | 12 mg/kg/day | – |
| O=C(CCCCCCCCCCBr)NCC(=O)N[C@@H]1[C@@H](O)[C@@H](O)[C@@H](Nc2ncnc3[nH]cnc23)O[C@H]1C(O)CO (stereo partly shown) [SPK64, 6-[4'-N-(N'-11-bromoundecanoylglycyl)spicaminyl-amino]purine] | 95 | – | 4 | 18 mg/kg/day | – |
| CCCCCCCCCCCCC(=O)NCC(=O)N[C@@H]1[C@@H](O)[C@@H](O)[C@@H](Nc2ncnc3[nH]cnc23)O[C@H]1C(O)CO (stereo partly shown) [SPM9, 6-[4 '-N-(N'-tridecanoylglycyl)spicaminyl-amino]purine] | 99 | 0.05 | 6 | 3.4 mg/kg/day | – |
| CCCCCCCCCCCCCC[C@H](O)C(=O)NCC(=O)NC1C(O)C(O)C(Nc2ncnc3[nH]cnc23)OC1C(O)CO (stereo partly drawn) [SPK271, 6-[4'-N-(N'-(S)-2-hydroxyhexadecanoylglycyl)spicaminyl-amino]purine] | 99 | 0.09 | – | 2 mg/kg/day | 8 |
| CCCCCCCC/C=C/C=C/C(=O)NCC(=O)N[C@@H]1[C@@H](O)[C@@H](O)[C@@H](Nc2ncnc3[nH]cnc23)O[C@H]1C(O)CO (stereo partly drawn) [SPK281, 6-[4'-N-(N'-trans,trans-2,4-tridecadienoylglycyl)spicaminyl-amino]purine] | 99 | 0.06 | 8 | 18 mg/kg/day | – |
| O=C(CCCCCCCCCCCBr)NCC(=O)N[C@@H]1[C@@H](O)[C@@H](O)[C@@H](Nc2ncnc3[nH]cnc23)O[C@H]1C(O)CO (stereo partly shown) [SPK152, 6-[4'-N-(N'-12-bromododecanoylglycyl)spicaminyl-amino]purine] | 100 | 0.03 | 8 | 36 mg/kg/day | – |
| CC(C)CCCCCCCCC(=O)NCC(=O)N[C@@H]1[C@@H](O)[C@@H](O)[C@@H](Nc2ncnc3[nH]cnc23)O[C@H]1C(O)CO (stereo partly shown) [SPK9, 6-[4'-N-(N'-10-methylundecanoylglycyl)spicaminyl-amino]purine] | 99 | 0.05 | 4 | 6 mg/kg/day | – |
| CCCCCCCCCCCC(=O)NCC(=O)NC1C(O)C(O)C(Nc2ncnc3[nH]cnc23)OC1C(O)CO (stereo not shown) [SPM8, reference compound] | 94 | 0.19 | 4 | 10.4 mg/kg/day | – |
| CCCCCCCCCCCCCCC(F)C(=O)NCC(=O)NC1C(O)C(O)C(Nc2ncnc3[nH]cnc23)OC1C(O)CO (stereo not shown) [SPK233, 6-[4'-N-(N'-2-fluorohexadecanoylglycyl)spicaminyl-amino]purine] | 96 | 0.13 | – | 2.7 mg/kg/day | 4 |
| O=C(CCCCCCCCCCI)NCC(=O)NC1C(O)C(O)C(Nc2ncnc3[nH]cnc23)OC1C(O)CO (stereo not shown) [SPK165, 6-[4'-N-(N'-11-iodoundecanoylglycyl)spicaminyl-amino]purine] | 86 | – | – | 24 mg/kg/day | – |
| CCCCCCCCCCC[C@@H](O)CC(=O)NCC(=O)NC1C(O)C(O)C(Nc2ncnc3[nH]cnc23)OC1C(O)CO (stereo partly drawn) [SPK270, 6-[4'-N-(N'-(R)-3-hydroxytetradecanoylglycyl)spicaminyl-amino]purine] | 94 | 0.21 | 4 | 12 mg/kg/day | – |
| O=C(CCCCCCCCC#Cc1ccsc1)NCC(=O)NC1C(O)C(O)C(Nc2ncnc3[nH]cnc23)OC1C(O)CO (stereo not shown) [SPK263, 6-{4,-N-[N'-11-(3'-thienyl)-10-undecynoylglycyl]spicaminyl-amino}purine] | 97 | 0.09 | 8 | 12 mg/kg/day | – |
| CCCCCCCCCCCCCC(CC(=O)NCC(=O)NC1C(O)C(O)C(Nc2ncnc3[nH]cnc23)OC1C(O)CO)OC(C)=O (stereo not shown) [SPK189, 6-[4'-N-(N'-3-acetoxyhexadecanoylglycyl)-spicaminyl-amino]purine] | 98 | 0.09 | 4 | 6 mg/kg/day | – |
| CCCCS(=O)(=O)OCCCCCCCCCCCC(=O)NCC(=O)NC1C(O)C(O)C(Nc2ncnc3[nH]cnc23)OC1C(O)CO (stereo not shown) [SPK232, 6-[4'-N-(N'-12-butanesulfonyloxydodecanoylglycyl)spicaminyl-amino]purine] | 96 | – | 4 | 24 mg/kg/day | – |
| CCCCCCCCCCCCCCC(O)C(=O)NCC(=O)NC1C(O)C(O)C(Nc2ncnc3[nH]cnc23)OC1C(O)CO (stereo not shown) [SPK112, 6-[4'-N-(N'-2-hydroxyhexadecanoylglycyl)spicaminyl-amino]purine] | 82 | – | – | 0.85 mg/kg/day | 4 |
| O=C(CCCCCCCCCCCCCCl)NCC(=O)N[C@@H]1[C@@H](O)[C@@H](O)[C@@H](Nc2ncnc3[nH]cnc23)O[C@H]1C(O)CO (stereo partly shown) [SPK280, 6-[4'-N-(N'-14-chlorotetradecanoylglycyl)spicaminyl-amino]purine] | 94 | 0.19 | 8 | 9 mg/kg/day | – |
| CCCCCCCCCCCCCC(=O)NCC(=O)N[C@@H]1[C@@H](O)[C@@H](O)[C@@H](Nc2ncnc3[nH]cnc23)O[C@H]1C(O)CO (stereo partly shown) [SPM10, 6-[4 ,-N-(N'-tetradecanoylglycyl)spicaminyl-amino]purine] | 98 | 0.10 | – | 2.6 mg/kg/day | 4 |
| CCCCCCCCCCCCC/C=C/C(=O)NCC(=O)N[C@@H]1[C@@H](O)[C@@H](O)[C@@H](Nc2ncnc3[nH]cnc23)O[C@H]1C(O)CO (stereo partly drawn) [SPK188, 6-[4'-N-(N'-trans-2-hexadecenoylglycyl)spicaminyl-amino]purine] | 92 | – | – | 0.6 mg/kg/day | – |
| O=C(CCCCCCCCCCCCCCCF)NCC(=O)NC1C(O)C(O)C(Nc2ncnc3[nH]cnc23)OC1C(O)CO (stereo not shown) [SPK157, 6-[4,-N-(N'-16-fluorohexadecanoylglycyl)spicaminyl-amino]purine] | 98 | 0.11 | – | 1.6 mg/kg/day | 4 |
| C=CCCCCCCCCCCC(=O)NCC(=O)N[C@@H]1[C@@H](O)[C@@H](O)[C@@H](Nc2ncnc3[nH]cnc23)O[C@H]1C(O)CO (stereo partly shown) [SPK142, 6-[4'-N-(N'-12-tridecenoylglycyl)spicaminyl-amino]purine] | 99 | 0.09 | 4 | 6 mg/kg/day | – |
